How the values were obtained:
[1] = test system: iPSC-derived RPE cells from AMD donors; test: Microarray analysis of gene expression on in vitro Bruch's membrane model; format: cell-based, human; details: AMD-derived RPE on nitrite-modified ECM, 10, 100, 1000 nM, 24 hours
Protocol: (§1) General. iPSC-derived RPE were generated from AMD patients (2 atrophic; 1 exudative) and patients with no history of AMD (n=3). To test the therapeutic efficacy of elamipretide and compound of Formula IIa, cell viability was analyzed on nitrite-modified extracellular matrix (ECM), a typical modification of aged Bruch's membrane, for 24 hrs. DNA microarrays were used to elucidate gene expression in AMD-derived RPE cultured on nitrite-modified ECM.
Microarray analysis. iPSC-derived RPE cells from AMD donors (n=3; 2 atrophic with GA, 1 exudative) were treated with drug (elamipretide or compound of Formula IIa) as described below and cultured on an in vitro Bruch's membrane model for 24 hours.
• AMD donors only (n=3 individual donors) • Cells treated with elamipretide (also referred to as “309” in the figures) at 10 nM, 100 nM and 1000 nM • Cells treated with compound of Formula IIa (also referred to as “146c” in the figures) at 10 nM, 100 nM, 1000 nM
Microarray studies using Affymetrix GeneChip Human Clariom™ S Assay were performed as described in Gong et al. (2020).

[2] = test system: iPSC-derived RPE cells from AMD donors; test: Cell viability assay on nitrite-modified ECM (Real Time-Glo MT Cell Viability Assay); format: cell-based, human; details: 10, 100, 1000 nM; 24 hours; versus vehicle-treated cells; FIG. 8J, *p<0.05
Protocol: as §1
Preparation of RPE cell-derived ECM and nitrite-modified ECM RPE cell-derived ECM plates were prepared from ARPE-19 cells as described in Wang et al., Curr Eye Res. 30:691-702 (2005); Fields et al. (2017); and Moreira et al., Transl Vis Sci Technol. 4:10 (2015). ECM on 96-well plates were used to create two experimental plating surfaces (nontreated ECM and nitrite-modified ECM). Nitrite-modified ECM was prepared by adding 100 mM sodium nitrite to ECM followed by incubation at 37° C. for 7 days. Plates were then washed with DPBS and incubated with DPBS for 4 hours to completely remove the nitrite. […]
Cell viability was measured by Real Time-Glo MT Cell Viability Assay (Promega, Madison, WI, www.promega.com) according to the manufacturer's protocol. […] Luminescent signals were acquired using a BioTek FLx800 plate reader (BioTek).

[3] = Uptake in plasma and compartments of the eye in a rabbit model (subcutaneous or topical ocular dosing); format: in vivo, Dutch Belted Rabbits
Protocol: 3 mg/mL elamipretide or compound of Formula IIa in saline was dosed subcutaneously at 1.5 mg/kg. A 3 mg/mL elamipretide or compound of Formula IIa formulation was prepared by dissolving 81 mg elamipretide in a total volume of 27 mL of sterile saline and mixing well. • (ii) Groups 2 & 4: Topical Ocular Formulation for administration of elamipretide or compound of Formula IIa
For each preparation (i.e., elamipretide or compound of Formula IIa, sodium chloride (105 mg) was dissolved in 16 mL of water for injection with mixing. With mixing, 82.8 mg of sodium phosphate monobasic, monohydrate was then added. With mixing, 0.400 mL of a 5 mg/mL benzalkonium chloride solution in water (to be prepared by diluting 0.100 mL of a 50% benzalkonium chloride solution in water to 10 mL with water for injection) was then added. Two hundred (200) mg of elamipretide or compound of Formula IIa was then added with mixing and the formulation pH was adjusted to 5.8 (+/−0.1) with 1 M sodium hydroxide in water solution. The final volume of the formulation was then be brought to 20 mL using water for injection. Each formulation (elamipretide or compound of Formula IIa) was used for topical ocular administration at a dose of 50 μL/eye OU.
A total of 48 male Dutch Belted Rabbits were used in the study. Each animal was approximately 2 kg.
For subcutaneous administration, rabbits were dosed via a single subcutaneous injection of 1.5 mg/kg and at the scruff of the neck between the shoulder blades using a syringe with an attached 27G×½ inch needle (or similar). The site of injection was checked to ensure no leakage of dose immediately following administration.
For topical administration, a calibrated Gilson positive displacement pipette was used to administer 50 μL of formulation onto the globe the eye while the lower eyelid was pulled away from the globe. Administration was twice daily (i.e., BID). Doses were administered to both eyes, every 8 to 12 hours for 11 total doses.
Terminal blood samples (approximately 6 mL) were collected from two animals/group/timepoint via the central ear artery at approximately 0.5, 1, 2, 4, 8, and 24 hours postdose. Blood samples were collected into tubes containing K2EDTA as the anticoagulant and inverted several times to ensure adequate mixing of blood and anticoagulant and placed on ice. Within 30 min of collection, samples were centrifuged to harvest plasma and stored at −80° C. until analyzed.
Following blood collection, designated animals were euthanized by barbiturate overdose. Following euthanasia, both eyes of each rabbit were harvested and dissected for collection of ocular tissue and fluid. Optic nerve and retina were collected from Group 1 and 3 animals, and aqueous humor, retina, conjunctiva, cornea, sclera, and optic nerve were collected from Group 2 and 4 animals. Following dissection, all fluids and tissues were placed in pre-tared tubes, weight collected, and then flash frozen on dry ice and placed in a freezer at −80° C. or lower until analyzed. Concentrations of test article in plasma in the ocular tissues (ng/g tissue) and fluids (ng/mL fluid) were determined utilizing a method previously developed by the CRO.

[4] = test system: iPSC-derived RPE cells from AMD donors; test: Measurement of mitochondrial function (Seahorse XF Cell Mito Stress Test); format: cell-based, human; details: 10, 100, 1000 nM, treatment began 24 hours prior to assay, FIGS. 8AA-8AL
Protocol: Measurement of mitochondrial function. Analysis of mitochondrial function was performed on live iPSC-derived RPE cells from AMD donors (n=3; 2 atrophic with GA, 1 exudative) treated with drug (elamipretide, compound of Formula IIa, or vehicle) as described below and iPSC-derived RPE cells from non-diseased controls (n=2) using the XFe96 Extracellular Flux Analyzer (Agilent Technologies, Santa Clara, California, www.agilent.com) and the Seahorse XF Cell Mito Stress Test (CMST) Kit (Agilent Technologies). iPSC-derived RPE cells were seeded onto a laminin-coated Seahorse XF plates and grown until confluent. Data were normalized by cell count. Drug treatments began 24 hours prior to assay. […]
Cells were stained with DAPI and counted by ImageJ software (National Institute of Health, Bethesda, Maryland, www.nih.gov). […] Oxygen consumption rate was detected under basal conditions followed by the sequential addition of oligomycin, carbonyl cyanide 4-(trifluoromethoxy) phenylhydrazone (FCCP), rotenone, and antimycin A. From these sequential additions, the following parameters can be derived: basal respiration, ATP production, maximal respiration, and spare respiratory capacity.

[5] = at 24 weeks of treatment; Pieramici & Ehlers, slide 15; cited from earlier work

For elamipretide [reference compound], the “expression of complement regulatory genes including CFHR2” value ([1]; FIG. 8S) was “increase expression”, the “expression of complement component genes (C1R, C3, C4A) increased by nitration of ECM” value ([1]; FIGS. 8L-8P) was “reverse this trend” and the “expression of mitochondrial-related genes, such as CYP24A1 and GLS” value ([1]; FIGS. 8W-8Z) was “altered the expression”. The “AMD-derived RPE cell viability on nitrite-modified ECM” value [2] was “significantly enhanced”, the “concentration in plasma, elamipretide compared with compound of Formula IIa” value ([3]; SC 1.5 mg/kg single dose or topical eye drops BID, 11 doses, FIGS. 1A, 1B) was “roughly equivalent” and the “concentration accumulated in the retina, compared with the other test article” value ([3]; regardless of mode of administration (topical or subcutaneous), FIGS. 2A, 2B) was “much lower”. The “mitochondrial function (ATP production; basal respiration; maximal respiration; spare respiratory capacity)” value [4] was “efficacy in improving mitochondrial function” and the “Average BCVA and LLVA in NCGA and HRD patients” value [5] was “improved significantly”.

— patent US20260263550A1, “METHODS AND COMPOSITIONS FOR TREATING, PREVENTING, INHIBITING, AMELIORATING OR DELAYING THE ONSET OF OPHTHALMIC CONDITIONS” (Stealth BioTherapeutics Inc., priority 2021, published 2026)
